Experiments:
myeloperoxidase [1] = molecular target: T1, myeloperoxidase (Homo sapiens, UniProt P05164); test: MPO Chlorination Assay (APF Assay); assay type: biochemical; details: potency range class, read-out: APF Assay IC50 value
T1 sequence (P05164 49-745): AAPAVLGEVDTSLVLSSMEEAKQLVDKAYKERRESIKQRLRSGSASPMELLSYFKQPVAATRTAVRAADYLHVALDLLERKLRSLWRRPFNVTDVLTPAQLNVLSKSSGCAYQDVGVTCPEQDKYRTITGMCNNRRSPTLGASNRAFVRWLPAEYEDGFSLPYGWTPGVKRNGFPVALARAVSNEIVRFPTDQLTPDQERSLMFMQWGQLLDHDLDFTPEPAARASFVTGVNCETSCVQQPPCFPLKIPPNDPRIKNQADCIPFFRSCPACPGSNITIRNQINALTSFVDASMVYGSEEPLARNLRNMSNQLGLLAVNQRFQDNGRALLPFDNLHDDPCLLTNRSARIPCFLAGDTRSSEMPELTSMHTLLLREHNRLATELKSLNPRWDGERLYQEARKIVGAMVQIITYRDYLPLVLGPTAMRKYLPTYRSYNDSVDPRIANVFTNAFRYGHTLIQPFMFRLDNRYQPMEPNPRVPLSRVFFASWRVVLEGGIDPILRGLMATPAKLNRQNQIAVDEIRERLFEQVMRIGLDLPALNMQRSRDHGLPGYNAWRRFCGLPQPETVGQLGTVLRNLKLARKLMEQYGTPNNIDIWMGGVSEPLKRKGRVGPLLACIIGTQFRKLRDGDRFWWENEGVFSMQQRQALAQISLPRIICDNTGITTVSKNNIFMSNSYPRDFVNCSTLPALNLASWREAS

myeloperoxidase [2] = molecular target: T1, myeloperoxidase; test: MPO Peroxidation Assay (Amplex Red Assay); assay type: biochemical; details: potency range class, read-out: Amplex Red Assay IC50 value

Nc1cc(C(CCNC(Cc2ccccc2)c2ccccc2)c2ccccc2)c2nn[nH]c2n1 (centres unmarked) [Example 47, 7-{3-[(1,2-diphenylethyl)amino]-1-phenylpropyl}-3H-[1,2,3]triazolo[4,5-b]pyridin-5-amine]
IC50 (myeloperoxidase [1]): 101 to 999 nM | IC50 (myeloperoxidase [2]): 1000 to 10000 nM

Nc1cc(C(CCNC(Cc2ccccc2)c2ccccc2)c2ccccc2)c2nn[nH]c2n1 (centres unmarked) [Example 48, 7-{3-[(1,2-diphenylethyl)amino]-1-phenylpropyl}-3H-[1,2,3]triazolo[4,5-b]pyridin-5-amine]
IC50 (myeloperoxidase [1]): 1 to 100 nM | IC50 (myeloperoxidase [2]): 101 to 999 nM

Nc1cc(C(CCNCc2cccc(C(F)(F)F)c2)c2ccccc2)c2nn[nH]c2n1 (centres unmarked) [Example 53, 7-[1-phenyl-3-({[3-(trifluoromethyl)phenyl]methyl}amino)propyl]-3H-[1,2,3]triazolo[4,5-b]pyridin-5-amine]
IC50 (myeloperoxidase [1]): 101 to 999 nM | IC50 (myeloperoxidase [2]): 101 to 999 nM

Nc1cc(C(CCNCc2ccc(C(F)(F)F)cc2)c2ccccc2)c2nn[nH]c2n1 (centres unmarked) [Example 54, 7-[1-phenyl-3-({[4-(trifluoromethyl)phenyl]methyl}amino)propyl]-3H-[1,2,3]triazolo[4,5-b]pyridin-5-amine]
IC50 (myeloperoxidase [1]): 101 to 999 nM | IC50 (myeloperoxidase [2]): 101 to 999 nM

Nc1cc(C(CCNC2c3ccccc3CC2c2ccccc2)c2ccccc2)c2nn[nH]c2n1 (centres unmarked) [Example 55, 7-{1-phenyl-3-[(2-phenyl-2,3-dihydro-1H-inden-1-yl)amino]propyl}-3H-[1,2,3] triazolo[4,5-b] pyridin-5-amine]
IC50 (myeloperoxidase [1]): 101 to 999 nM | IC50 (myeloperoxidase [2]): 1000 to 10000 nM

Nc1cc(C(CCNC2c3ccccc3CC2c2ccccc2)c2ccccc2)c2nn[nH]c2n1 (centres unmarked) [Example 56, 7-{1-phenyl-3-[(2-phenyl-2,3-dihydro-1H-inden-1-yl)amino]propyl}-3H-[1,2,3]triazolo[4,5-b] pyridin-5-amine]
IC50 (myeloperoxidase [1]): 1 to 100 nM | IC50 (myeloperoxidase [2]): 101 to 999 nM

Nc1cc(C(CCN[C@H]2CCc3ccc(F)cc32)c2ccccc2)c2nn[nH]c2n1 (stereo partly drawn) [Example 57, 7-(3-{[(1S)-6-fluoro-2,3-dihydro-1H-inden-1-yl]amino}-1-phenylpropyl)-3H-[1,2,3]triazolo[4,5-b]pyridin-5-amine]
IC50 (myeloperoxidase [1]): 1 to 100 nM | IC50 (myeloperoxidase [2]): 101 to 999 nM

Nc1cc(C(CCN[C@H]2CCc3cc(F)ccc32)c2ccccc2)c2nn[nH]c2n1 (stereo partly drawn) [Example 58, 7-(3-{[(1S)-5-fluoro-2,3-dihydro-1H-inden-1-yl]amino}-1-phenylpropyl)-3H-[1,2,3]triazolo[4,5-b]pyridin-5-amine]
IC50 (myeloperoxidase [1]): 1 to 100 nM | IC50 (myeloperoxidase [2]): 101 to 999 nM

COC(=O)c1cccc(CNCCC(c2ccccc2)c2cc(N)nc3[nH]nnc23)c1 (centres unmarked) [Example 59, methyl 3-{[(3-{5-amino-3H-[1,2,3]triazolo [4,5-b]pyridin-7-yl}-3-phenylpropyl)amino]methyl} benzoate]
IC50 (myeloperoxidase [1]): 101 to 999 nM | IC50 (myeloperoxidase [2]): 101 to 999 nM

Nc1cc(C(CCN[C@@H]2CCc3ccc(F)cc32)c2ccccc2)c2nn[nH]c2n1 (stereo partly drawn) [Example 60, 7-(3-{[(1R)-6-fluoro-2,3-dihydro-1H-inden-1-yl]amino}-1-phenylpropyl)-3H-[1,2,3]triazolo[4,5-b]pyridin-5-amine]
IC50 (myeloperoxidase [1]): 1 to 100 nM | IC50 (myeloperoxidase [2]): 101 to 999 nM

Nc1cc(C(CCN[C@@H]2CCc3cc(F)ccc32)c2ccccc2)c2nn[nH]c2n1 (stereo partly drawn) [Example 61, 7-(3-{[(1R)-5-fluoro-2,3-dihydro-1H-inden-1-yl]amino}-1-phenylpropyl)-3H-[1,2,3]triazolo[4,5-b]pyridin-5-amine]
IC50 (myeloperoxidase [1]): 101 to 999 nM | IC50 (myeloperoxidase [2]): 101 to 999 nM

Nc1cc(C(CCNCc2ccnc(C(F)(F)F)c2)c2ccccc2)c2nn[nH]c2n1 (centres unmarked) [Example 62, 7-[1-phenyl-3-({[2-(trifluoromethyl)pyridin-4-yl]methyl}amino)propyl]-3H-[1,2,3]triazolo[4,5-b]pyridin-5-amine]
IC50 (myeloperoxidase [1]): 101 to 999 nM | IC50 (myeloperoxidase [2]): 101 to 999 nM

Nc1cc(C(CCNCc2ccccc2Cc2ccccc2)c2ccccc2)c2nn[nH]c2n1 (centres unmarked) [Example 63, 7-(3-{[(2-benzylphenyl)methyl]amino}-1-phenylpropyl)-3H-[1,2,3]triazolo[4,5-b]pyridin-5-amine]
IC50 (myeloperoxidase [1]): 1 to 100 nM | IC50 (myeloperoxidase [2]): 101 to 999 nM

Nc1cc(C(CCN[C@@H]2CCc3c(Cl)cccc32)c2ccccc2)c2nn[nH]c2n1 (stereo partly drawn) [Example 65, 7-(3-{[(1R)-4-chloro-2,3-dihydro-1H-inden-1-yl]amino}-1-phenylpropyl)-3H-[1,2,3]triazolo[4,5-b]pyridin-5-amine]
IC50 (myeloperoxidase [1]): 101 to 999 nM | IC50 (myeloperoxidase [2]): 101 to 999 nM

NC(=O)c1cccc(CNCCC(c2ccccc2)c2cc(N)nc3[nH]nnc23)c1 (centres unmarked) [Example 70, 3-{[(3-{5-amino-3H-[1,2,3]triazolo[4,5-b]pyridin-7-yl}-3-phenylpropyl)amino]methyl}hbenzamide]
IC50 (myeloperoxidase [1]): 101 to 999 nM | IC50 (myeloperoxidase [2]): 101 to 999 nM

CN(C)C(=O)c1cccc(CNCCC(c2ccccc2)c2cc(N)nc3[nH]nnc23)c1 (centres unmarked) [Example 72, 3-{[(3-{5-amino-3H-[1,2,3]triazolo[4,5-b]pyridin-7-yl}-3-phenylpropyl)amino]methyl}-N,N-dimethylbenzamide]
IC50 (myeloperoxidase [1]): 101 to 999 nM | IC50 (myeloperoxidase [2]): 101 to 999 nM

Nc1cc(C(CCN[C@H]2CCc3c(Cl)cccc32)c2ccccc2)c2nn[nH]c2n1 (stereo partly drawn) [Example 73, 7-(3-{[(1S)-4-chloro-2,3-dihydro-1H-inden-1-yl]amino}-1-phenylpropyl)-3H-[1,2,3]triazolo [4,5-b]pyridin-5-amine]
IC50 (myeloperoxidase [1]): 1 to 100 nM | IC50 (myeloperoxidase [2]): 1000 to 10000 nM

Nc1cc(C(CCNCc2ccccc2Oc2ccccc2)c2ccccc2)c2nn[nH]c2n1 (centres unmarked) [Example 74, 7-(3-{[(2-phenoxyphenyl)methyl]amino}-1-phenylpropyl)-3H-[1,2,3]triazolo[4,5-b]pyridin-5-amine]
IC50 (myeloperoxidase [1]): 1 to 100 nM | IC50 (myeloperoxidase [2]): 101 to 999 nM

Nc1cc(C(CCN[C@H]2C[C@@H](c3ccccc3)C2)c2ccccc2)c2nn[nH]c2n1 (some centres unmarked) [Example 76, 7-(1-phenyl-3-{[(1s,3s)-3-phenylcyclobutyl]amino}propyl)-3H-[1,2,3]triazolo[4,5-b]pyridin-5-amine]
IC50 (myeloperoxidase [1]): 1 to 100 nM | IC50 (myeloperoxidase [2]): 101 to 999 nM

Nc1cc(C(CCNCc2ccccc2Cc2ccc3c(c2)CCCC3)c2ccccc2)c2nn[nH]c2n1 (centres unmarked) [Example 78, 7-{1-phenyl-3-[({2-[(5,6,7,8-tetrahydronaphthalen-2-yl)methyl]phenyl}methyl)amino]propyl}-3H-[1,2,3] triazolo[4,5-b] pyridin-5-amine]
IC50 (myeloperoxidase [1]): 1 to 100 nM | IC50 (myeloperoxidase [2]): 101 to 999 nM

Nc1cc(C(CCN[C@H]2C[C@H](c3ccccc3)Cc3ccccc32)c2ccccc2)c2nn[nH]c2n1 (stereo partly drawn) [Example 82, 7-(1-phenyl-3-{[(1S,3R)-3-phenyl-1,2,3,4-tetrahydronaphthalen-1-yl]amino}propyl)-3H-[1,2,3]triazolo [4,5-b]pyridin-5-amine]
IC50 (myeloperoxidase [1]): 1 to 100 nM | IC50 (myeloperoxidase [2]): 1000 to 10000 nM

Nc1cc(C(CCN[C@@H]2C[C@H](c3ccccc3)Cc3ccccc32)c2ccccc2)c2nn[nH]c2n1 (stereo partly drawn) [Example 83, 7-(1-phenyl-3-{[(1R,3R)-3-phenyl-1,2,3,4-tetrahydronaphthalen-1-yl]amino}propyl)-3H-[1,2,3]triazolo [4,5-b]pyridin-5-amine]
IC50 (myeloperoxidase [1]): 1 to 100 nM | IC50 (myeloperoxidase [2]): 1000 to 10000 nM

Nc1cc(C(CCN[C@@H]2C[C@@H](c3ccccc3)Cc3ccccc32)c2ccccc2)c2nn[nH]c2n1 (stereo partly drawn) [Example 84, 7-(1-phenyl-3-{[(1R,3S)-3-phenyl-1,2,3,4-tetrahydronaphthalen-1-yl]amino}propyl)-3H-[1,2,3]triazolo [4,5-b]pyridin-5-amine]
IC50 (myeloperoxidase [1]): 101 to 999 nM | IC50 (myeloperoxidase [2]): 1000 to 10000 nM

CC1(C)C[C@@H](NCCC(c2ccccc2)c2cc(N)nc3[nH]nnc23)c2ccccc21 (stereo partly drawn) [Example 85, 7-(3-{[(1R)-3,3-dimethyl-2,3-dihydro-1H-inden-1-yl]amino}-1-phenylpropyl)-3H-[1,2,3]triazolo [4,5-b]pyridin-5-amine]
IC50 (myeloperoxidase [1]): 1 to 100 nM | IC50 (myeloperoxidase [2]): 101 to 999 nM

CC1(C)C[C@H](NCCC(c2ccccc2)c2cc(N)nc3[nH]nnc23)c2ccccc21 (stereo partly drawn) [Example 87, 7-(3-{[(1S)-3,3-dimethyl-2,3-dihydro-1H-inden-1-yl]amino}-1-phenylpropyl)-3H-[1,2,3]triazolo [4,5-b]pyridin-5-amine]
IC50 (myeloperoxidase [1]): 1 to 100 nM | IC50 (myeloperoxidase [2]): 101 to 999 nM

CC1C[C@@H](NCCC(c2ccccc2)c2cc(N)nc3[nH]nnc23)c2ccccc21 (stereo partly drawn) [Example 88, 7-(3-{[(1R)-3-methyl-2,3-dihydro-1H-inden-1-yl]amino}-1-phenylpropyl)-3H-[1,2,3]triazolo[4,5-b]pyridin-5-amine]
IC50 (myeloperoxidase [1]): 101 to 999 nM | IC50 (myeloperoxidase [2]): 101 to 999 nM

Nc1cc(C(CCNCc2ccccc2OC(F)(F)F)c2ccccc2)c2nn[nH]c2n1 (centres unmarked) [Example 89, 7-[1-phenyl-3-({[2-(trifluoromethoxy)phenyl]methyl}amino)propyl]-3H-[1,2,3] triazolo[4,5-b] pyridin-5-amine]
IC50 (myeloperoxidase [1]): 101 to 999 nM | IC50 (myeloperoxidase [2]): 1000 to 10000 nM

Nc1cc(C(CCNC2CCN(c3ccccc3)CC2)c2ccccc2)c2nn[nH]c2n1 (centres unmarked) [Example 92, N-(3-{5-amino-3H-[1,2,3]triazolo [4,5-b]pyridin-7-yl}-3-phenylpropyl)-1-phenylpiperidin-4-amine]
IC50 (myeloperoxidase [1]): 1 to 100 nM | IC50 (myeloperoxidase [2]): 1000 to 10000 nM

From patent US11008317B2, “Triazolopyridine inhibitors of myeloperoxidase and/or EPX” (priority 2016, dated 2021)
